Legend:
Candida albicans = assay: Flow cytometry antibody-recruiting assay (anti-DNP antibodies) on C. albicans; type: cell-based
Description: Candida albicans cultures were maintained on Sabouraud dextrose agar (SDA) and yeast cell cultures were grown at 30° C. in Sabouraud dextrose broth with shaking at 225 rpm overnight (OD 1.1-1.3). For the assays, 10^5 cells were taken into 50 μL assay medium (5% BSA in PBS 1x) and treated with a fixed concentration of the indicated ARM-F compound from 100x DMSO stocks followed by imminent addition of 50 μL 500x stock solution of anti-DNP-biotine-xx conjugate antibodies in assay medium. Cells were allowed to incubate for 30 min at r.t., then washed twice with 500 μL assay medium followed by addition of 50 μL 500x stock solution of streptavidin-AlexaFluor 647 conjugate and propidium iodide. […] The cells were allowed to incubate for another 30 min, washed with 500 μL assay medium and antibody recruiting to the cell surface was evaluated via flow cytometry by measuring increasing cell counts in the FL-4 channel negative for FL-3.
A flow-cytometry based assay was developed to assess the antibody recruitment ability of candidate ARM-Fs to isolates of C. albicans. We chose this organism for our studies because it is both a known human pathogen, and readily tractable for experimental manipulations.^[13] Ternary complexes formed from ARM-F, fungal cells and anti-DNP antibodies were detected using an anti-DNP secondary antibody conjugated to Alexa Fluor 647 fluorophore. […]

[1] = system: caspofungin-treated C. albicans cells; assay: Flow cytometry antibody-recruiting assay on C. albicans grown with caspofungin; type: cell-based, Candida albicans
Description: The synergistic experiments with Caspofungin were performed as described above, Save that yeast cell cultures were grown in Sabouraud dextrose broth supplemented with a fixed concentration of Caspofungin acetate from DMSO stock solutions.
Cultures of C. albicans Ca2323 were grown in Sabourad dextrose broth (Hardy Diagnostics, CA) to maintain them in a non-sporulating yeast form (blastopore form). S. cerevisiae YPH499 (Mat type a) were grown in YPD brath (Teknova, CA). Chitin-deficient strain S. cerevisiae YMS348s Δchs 1,2,3 was grown in YPD broth supplemented with 1M sorbitol. The fungal cultures were generally grown overnight at 30° C. for the antibody recruitment and phagocytosis assays. For consistency, O.D. measurements were taken using a single cuvette UltraSpec 10 cell density meter and experiments were performed on cultures with similar density. For experiments involving caspofungin treated C. albicans, the cells were grown overnight in media containing 1.25 ng/ml caspofungin acetate (Merck, PA). For experiments involving α factor induced arrest, α factor pheromone trifluoroacetate salt (Bachem, Switzerland) was added to a fresh S. cerevisiae YPH499 culture to a final concentration of 5 μg/mL followed by incubation for 1 h. Then, the cells were treated repeatedly with α factor pheromone trifluoroacetate salt (5 μg/mL) and incubated for an additional 2 h.
Fungal cells for the antibody recruitment experiments were always grown to 1.0 O.D. for consistency across experiments. The fungal cells were pelleted, washed, counted on the flow cytometer and re-constituted in FACS buffer of PBS containing 5% BSA at a density of 1×10^5 cells/mL. One microliter of suitably diluted ARM compound followed by 1 μL of 1:100 diluted anti-DNP biotinylated mouse monoclonal antibody (2 mg/mL, Invitrogen, CA) was added to 100 μL of fungal cells in FACS buffer. The reaction was mixed well and incubated in a 37° C. incubator for 30 minutes. Post incubation, washing was performed by adding 1 mL of FACS buffer to the reaction and the cells pelleted by centrifugation at 10000x g for 5 minutes. The pelleted cells were then reconstituted in 100 μl of FACS buffer followed by addition of 1 μL of 1:1000 diluted AF647 labeled streptavidin (0.5 mg/mL, BioLegend, CA) and 1 μL of 100 μg/ml propidium iodide (PromoKine, Germany). […] All experiments consisted of two sets of controls: (i) flow controls: unstained cells, propidium iodide stained cells, secondary reagent stained cells; (ii) background controls: compound 9 lacking DNP motifs, and no ARM-F. The cells were analyzed by flow cytometry on an Attune Nxt flow cytometer (Thermo Fischer Scientific) and the raw data further analyzed using FlowJo software (FlowJo LLC, OR).

C. albicans = assay: Dual color flow cytometry-based fungal opsono-phagocytosis assay; type: cell-based, Candida albicans
Text: In the physiological state, neutrophils mediate immune clearance of antibody-opsonized fungal cells.^[18], [19] To mimic this mechanism, we developed a functional assay to analyse ARM-F mediated opsonophagocytosis of fungal cells. The assay is based on two color flow cytometry and operates on the principle of differentiating phagocytosed fungal cells (intracellular) from non-phagocytosed cells (extracellular).^[20] […]
The pro-myeloblast cell line HL-60 was obtained from AtCC and cultured in high serum DMEM-F12 growth medium containing 15% FBS, 1 mM sodium pyruvate, 2 mM L-glutamine, 1X non-essential amino acids with antibiotics penicillin (10 U/mL) and streptomycin (10 μg/mL). […] The cells were counted every 24-48 hours on a Roche Innovatis Cedex XS automated cell counter and generally maintained at a density of 1×10^5 cells/mL. […]
Fungal cells for these experiments were always grown to 1.0 OD and the HL-60 cells to approximately 1×10^5 cells/mL for consistency between experiments. The fungal cells were counted by flow cytometry, pelleted and reconstituted in a fixing solution of ice-cold 70% ethanol and incubated for 1 h. […] After the final wash, the fungal cells were counted again on the flow cytometer and re-constituted in FACS buffer of PBS containing 5% BSA at a density of 2×10^6 cells/mL. […]

[2] = ELISA assay for antibody recruitment on immobilized chitin; type: binding; settings: FIG. 9A
Description: Free chitin (0.100 g, Alfa Aesar, United Kingdom) was hydrolyzed by adding 10 ml of conc. HCl for 30 min with gentle stirring. An aliquot of the chilin solution(1 mL) was mixed with 9 ml of PBS to the final concentration of 1 mg/mL. This solution was further diluted to 100 μg/mL with PBS and coated overnight at 4° C. in a 96-well Nunc MaxiSorp microtiter plate. Upon completion, the coated plate was blocked with 2% BSA solution at 37° C. for 3 h. Next, compounds and controls at predetermined dilutions made in the 2% BSA blocking solution were added followed by addition of 2 mg/ml anti-DNP biotinylated antibodies diluted 1:100 (Invitrogen, CA). The plate was covered and incubated at 37° C. for 1 h. The plate was washed 3 times with wash solution (0.2% Tween 20 in PBS) and HRP-labeled streptavidin secondary reagent was added at a dilution 1:10000 in 2% BSA. The plate was incubated again at 37° C. for 1 h followed by washing 3 times with wash solution. HRP substrate TMB Ultra solution (Thermo Fischer, IL) was added to the plates and incubated until suitable color development and the reaction was stopped by adding 100 μL of aq. 1N H2SO4. Quantification was performed by measuring absorbance on a plate reader at 450 nm.

SMILES	viability of fungal cells during antibody recruitment (Candida albicans; dose-dependent recruitment, FIG. 8B)	C. albicans cells exhibiting AF647 fluorescence (Candida albicans; no caspofungin, FIG. 8A)	fungal cells that recruited antibodies and were alive ([1]; 1 μM of 8, 1.25 ng/ml caspofungin, FIG. 9C) [%]	dose eliciting antibody recruitment comparable to the maximum possible in the non-caspofungin model ([1]; caspofungin treated C. albicans, FIG. 9D) [nM]	concentration eliciting maximum response in caspofungin treated cells ([1]; dose ranging, caspofungin treated C. albicans, FIG. 9D) [µM]	concentration of maximal phagocytosis response (C. albicans; bell-shaped curve, FIG. 10C) [µM]	phagocytosis of C. albicans cells (in words) (C. albicans; human neutrophils, anti-DNP antibodies, compared to untreated cells)	binding to chitin (in words) [2]	viability of C. albicans at caspofungin concentrations higher than 1.25 ng/ml ([1]; FIG. 9C)
O=C(NCCOCCOCCOCCOCCOCCOCCOCCOCCOCCNc1ccc([N+](=O)[O-])cc1[N+](=O)[O-])c1ccc(Nc2nc(Nc3ccc(/C=C/c4ccc(Nc5nc(Nc6ccc(C(=O)NCCOCCOCCOCCOCCOCCOCCOCCOCCOCCNc7ccc([N+](=O)[O-])cc7[N+](=O)[O-])cc6)nc(N(CCO)CCO)n5)cc4S(=O)(=O)O)c(S(=O)(=O)O)c3)nc(N(CCO)CCO)n2)cc1 [compound 8]	no loss of viability	35-45%	90	10	1	10	drastic increase in number of phagocytosed fungal cells	binds to fungal chitin in a dose-dependent manner	
CC[C@H](C)C[C@H](C)CCCCCCCCC(=O)N[C@H]1C[C@@H](O)[C@@H](NCCN)NC(=O)[C@@H]2[C@@H](O)CCN2C(=O)[C@H]([C@H](O)CCN)NC(=O)[C@H]([C@H](O)[C@@H](O)c2ccc(O)cc2)NC(=O)[C@@H]2C[C@@H](O)CN2C(=O)[C@H]([C@@H](C)O)NC1=O [Caspofungin, reference compound]									reduced viability

From patent US20190209572A1, “BIFUNCTIONAL ANTIFUNGAL AGENTS AND METHODS OF TREATING FUNGAL INFECTION” (YALE UNIVERSITY, priority 2016, published 2019)
